Measurements from patent US12077503B2, “Substituted cyclic amides and their use as herbicides” (FMC CORPORATION, priority 2015, dated 2024).

Key:
Format in all cases: in vivo
[1] = test system: sedge, umbrella (small-flower umbrella sedge, Cyperus difformis); test: Test C flooded paddy test; conditions: Flood, 0 is no effect, 100 is complete control
Outline: (§1)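 Plants grown to the 2-leaf stage in pots flooded to 3 cm above soil; compounds applied directly into the paddy water, depth held throughout. After 13 to 15 d in greenhouse, injury visually rated against untreated controls on a 0–100 scale (0 no effect, 100 complete control).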

[2] = test system: ducksalad (Heteranthera limosa); test: Test C flooded paddy test; conditions: Flood, 0 is no effect, 100 is complete control
Outline: as §1

rice (Oryza sativa) = test: Test C flooded paddy test; conditions: Flood, 0 is no effect, 100 is complete control
Outline: as §1

[3] = test system: barnyardgrass (Echinochloa crus-galli); test: Test C flooded paddy test; conditions: Flood, 0 is no effect, 100 is complete control
Outline: as §1

[4] = test system: horseweed (Conyza canadensis); test: Test E preemergence; conditions: scale 0 to 100
Outline: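 Preemergence to seeds in silt loam, or postemergence to 1- to 4-leaf plants in peat-based potting mix; compound formulated in non-phytotoxic solvent plus surfactant. Greenhouse, 14–21 d. Visual injury vs. controls, 0 = no effect, 100 = complete control.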

[5] = test system: pigweed, palmer (palmer pigweed, Amaranthus palmeri); test: Test E postemergence; conditions: scale 0 to 100
Description: (§2) Seeds of plant species selected from corn (Zea mays), soybean (Glycine max), velvetleaf (Abutilon theophrasti), lambsquarters (Chenopodium album), poinsettia, wild (wild poinsettia, Euphorbia heterophylla), pigweed, palmer (palmer pigweed, Amaranthus palmeri), waterhemp (common waterhemp, Amaranthus rudis), surinam grass (Brachiaria decumbens), crabgrass, large (large crabgrass, Digitaria sangumnalis), crabgrass, Brazil (Brazilian crabgrass, Digitaria horizontalis), Panicum, fall (fall Panicum, Panicum dichotomiflorum), foxtail, giant (giant foxtail, Setaria faberii), foxtail, green (green foxtail, Setaria viridis), goosegrass (Eleusine indica), johnsongrass (Sorghum halepense), ragweed (common ragweed, Ambrosia elatior), barnyardgrass (Echinochloa crus-galli), sandbur (southern sandbur, Cenchrus echinatus), arrowleaf Sida (Sida rhombifolia), ryegrass, Italian (Italian ryegrass, Lolium multiflorum), dayflower, VA (Virginia dayflower, Commelina virginica), field bindweed (Convolvulus arvensis), morningglory (Ipomoea coccinea), nightshade (eastern black nightshade, Solanum ptycanthum), Kochia (Kochia scoparia), nutsedge, yellow (yellow nutsedge, Cyperus esculentus), horseweed (Conyza canadensis), and beggarticks (hairy beggarticks, Bidens pilosa), were planted into a silt loam soil and treated preemergence with test chemicals formulated in a non-phytotoxic solvent mixture which included a surfactant.
(§3) At the same time, plants selected from these crop and weed species were planted in pots containing Sunshine Redi-Earth planting medium comprising spaghnum peat moss, vermiculite, starter nutrients and dolomitic limestone and treated with postemergence applications of a test chemical formulated in the same manner. Plants ranged in height from 2 to 18 cm (1- to 4-leaf stage) for postemergence treatments. Treated plants and controls were maintained in a greenhouse for 14 to 21 d, after which time all species were compared to controls and visually evaluated. Plant response ratings, summarized in Table E, are based on a scale of 0 to 100 where 0 is no effect and 100 is complete control. A dash (-) response means no test result.

corn (Zea mays) = test: Test E postemergence; conditions: scale 0 to 100
Description: as §2, §3

[6] = test system: crabgrass, large (large crabgrass, Digitaria sangumnalis); test: Test E postemergence; conditions: scale 0 to 100
Description: as §2, §3

[7] = test system: waterhemp (common waterhemp, Amaranthus rudis); test: Test E postemergence; conditions: scale 0 to 100
Description: as §2, §3

soybean (Glycine max) = test: Test E postemergence; conditions: scale 0 to 100
Description: as §2, §3

[8] = test system: foxtail, giant (giant foxtail, Setaria faberii); test: Test E postemergence; conditions: scale 0 to 100
Description: as §2, §3

CN1C[C@H](c2ccc(F)c(F)c2)[C@@H](C(=O)Nc2ccccc2F)C1=O [Compound 596, (3S,4S)-4-(3,4-difluorophenyl)-N-(2-fluorophenyl)-1-methyl-2-oxo-3-pyrrolidinecarboxamide]
Plant response rating (scale of 0 to 100), Sedge, Umbrella ([1]; 31 g ai/ha): 0
Plant response rating (scale of 0 to 100), Sedge, Umbrella ([1]; 62 g ai/ha): 0
Plant response rating (scale of 0 to 100), Sedge, Umbrella ([1]; 125 g ai/ha): 0
Plant response rating (scale of 0 to 100), Sedge, Umbrella ([1]; 250 g ai/ha): 0
Plant response rating (scale of 0 to 100), Ducksalad ([2]; 31 g ai/ha): 30
Plant response rating (scale of 0 to 100), Ducksalad ([2]; 62 g ai/ha): 60
Plant response rating (scale of 0 to 100), Ducksalad ([2]; 125 g ai/ha): 90
Plant response rating (scale of 0 to 100), Ducksalad ([2]; 250 g ai/ha): 100
Plant response rating (scale of 0 to 100), Rice (rice (Oryza sativa); 31 g ai/ha): 0
Plant response rating (scale of 0 to 100), Rice (rice (Oryza sativa); 62 g ai/ha): 0
Plant response rating (scale of 0 to 100), Rice (rice (Oryza sativa); 125 g ai/ha): 10
Plant response rating (scale of 0 to 100), Rice (rice (Oryza sativa); 250 g ai/ha): 10
Plant response rating (scale of 0 to 100), Barnyardgrass ([3]; 31 g ai/ha): 0
Plant response rating (scale of 0 to 100), Barnyardgrass ([3]; 62 g ai/ha): 60
Plant response rating (scale of 0 to 100), Barnyardgrass ([3]; 125 g ai/ha): 75
Plant response rating (scale of 0 to 100), Barnyardgrass ([3]; 250 g ai/ha): 85

CN1C[C@H](c2ccc(C(F)(F)F)cc2)[C@@H](C(=O)Nc2cccc(F)c2F)C1=O [Compound 623, (3S,4S)—N-(2,3-difluorophenyl)-1-methyl-2-oxo-4-[4-(trifluoromethyl)phenyl]-3-pyrrolidinecarboxamide]
Plant response rating: Horseweed ([4]; 31 g ai/ha): 80
Plant response rating: Horseweed ([4]; 62 g ai/ha): 90
Plant response rating: Horseweed ([4]; 125 g ai/ha): 90
Plant response rating: Horseweed ([4]; 250 g ai/ha): 90
Plant response rating: Pigweed, Palmer ([5]; 16 g ai/ha): 6
Plant response rating: Pigweed, Palmer ([5]; 31 g ai/ha): 19
Plant response rating: Pigweed, Palmer ([5]; 62 g ai/ha): 43
Plant response rating: Pigweed, Palmer ([5]; 125 g ai/ha): 40
Plant response rating: Pigweed, Palmer ([5]; 250 g ai/ha): 68
Plant response rating: Corn (corn (Zea mays); 16 g ai/ha): 0
Plant response rating: Corn (corn (Zea mays); 31 g ai/ha): 0
Plant response rating: Corn (corn (Zea mays); 62 g ai/ha): 1
Plant response rating: Corn (corn (Zea mays); 125 g ai/ha): 1
Plant response rating: Corn (corn (Zea mays); 250 g ai/ha): 4
Plant response rating: Crabgrass, Large ([6]; 16 g ai/ha): 1
Plant response rating: Crabgrass, Large ([6]; 31 g ai/ha): 10
Plant response rating: Crabgrass, Large ([6]; 62 g ai/ha): 10
Plant response rating: Crabgrass, Large ([6]; 125 g ai/ha): 30
Plant response rating: Crabgrass, Large ([6]; 250 g ai/ha): 55
Plant response rating: Waterhemp ([7]; 16 g ai/ha): 11
Plant response rating: Waterhemp ([7]; 31 g ai/ha): 45
Plant response rating: Waterhemp ([7]; 62 g ai/ha): 55
Plant response rating: Waterhemp ([7]; 125 g ai/ha): 65
Plant response rating: Waterhemp ([7]; 250 g ai/ha): 68
Plant response rating: Soybean (soybean (Glycine max); 16 g ai/ha): 0
Plant response rating: Soybean (soybean (Glycine max); 31 g ai/ha): 0
Plant response rating: Soybean (soybean (Glycine max); 62 g ai/ha): 20
Plant response rating: Soybean (soybean (Glycine max); 125 g ai/ha): 19
Plant response rating: Soybean (soybean (Glycine max); 250 g ai/ha): 35
Plant response rating: Foxtail, Giant ([8]; 16 g ai/ha): 5
Plant response rating: Foxtail, Giant ([8]; 31 g ai/ha): 54
Plant response rating: Foxtail, Giant ([8]; 62 g ai/ha): 56
Plant response rating: Foxtail, Giant ([8]; 125 g ai/ha): 78
Plant response rating: Foxtail, Giant ([8]; 250 g ai/ha): 69
